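Here, GI50 denotes the concentration required for 50% inhibition of growth. At the TGI there is no net growth.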
Experiments:
Assay in all cases: inhibition of tumour cell growth, NCI panel, 384-well format
786-0 renal = system: 786-0 renal
A498 renal = system: A498 renal
A549 NSCLC = system: A549 NSCLC
ACHN renal = system: ACHN renal
BT-549 breast = system: BT-549 breast
CAKI-1 renal = system: CAKI-1 renal
CCRF-CEM leukemia = system: CCRF-CEM leukemia
COLO 205 colon = system: COLO 205 colon
DU-145 prostate = system: DU-145 prostate
EKVX NSCLC = system: EKVX NSCLC
HCC-2998 colon = system: HCC-2998 colon
HCT-116 colon = system: HCT-116 colon
HCT-15 colon = system: HCT-15 colon
HL-60(TB) leukemia = system: HL-60(TB) leukemia
HOP-62 NSCLC = system: HOP-62 NSCLC
HOP-92 NSCLC = system: HOP-92 NSCLC
HT29 colon = system: HT29 colon
IGROV1 ovarian = system: IGROV1 ovarian
K-562 leukemia = system: K-562 leukemia
KM12 colon = system: KM12 colon
LOX IMVI melanoma = system: LOX IMVI melanoma
M14 melanoma = system: M14 melanoma
MALME-3M melanoma = system: MALME-3M melanoma
MCF7 breast = system: MCF7 breast
MDA-MB-231 breast = system: MDA-MB-231 breast
MDA-MB-435 melanoma = system: MDA-MB-435 melanoma
MDA-MB-468 breast = system: MDA-MB-468 breast
MOLT-4 leukemia = system: MOLT-4 leukemia
NCI-H226 lung = system: NCI-H226 lung
NCI-H23 lung = system: NCI-H23 lung
NCI-H322M lung = system: NCI-H322M lung
NCI-H460 NSCLC = system: NCI-H460 NSCLC
NCI-H522 lung = system: NCI-H522 lung
NCI/ADR-RES ovarian = system: NCI/ADR-RES ovarian
OVCAR-3 ovarian = system: OVCAR-3 ovarian
OVCAR-4 ovarian = system: OVCAR-4 ovarian
OVCAR-5 ovarian = system: OVCAR-5 ovarian
OVCAR-8 ovarian = system: OVCAR-8 ovarian
PC-3 prostate = system: PC-3 prostate
RPMI-8226 leukemia = system: RPMI-8226 leukemia
RXF 393 renal = system: RXF 393 renal
SF-268 CNS = system: SF-268 CNS
SF-295 CNS = system: SF-295 CNS
SF-539 CNS = system: SF-539 CNS
SK-MEL-2 melanoma = system: SK-MEL-2 melanoma
SK-MEL-28 melanoma = system: SK-MEL-28 melanoma
SK-MEL-5 melanoma = system: SK-MEL-5 melanoma
SK-OV-3 ovarian = system: SK-OV-3 ovarian
SN12C renal = system: SN12C renal
SNB-19 CNS = system: SNB-19 CNS
SNB-75 CNS = system: SNB-75 CNS
SR leukemia = system: SR leukemia
SW-620 colon = system: SW-620 colon
T-47D breast = system: T-47D breast
TK-10 renal = system: TK-10 renal
U251 glioblastoma = system: U251 glioblastoma
UACC-257 melanoma = system: UACC-257 melanoma
UACC-62 melanoma = system: UACC-62 melanoma
UO-31 renal = system: UO-31 renal

## CCc1cccc(CC)c1NC(=O)c1ccn2c1CCc1cnc(Nc3ccc(N4CCN(C)CC4)cc3OC)nc1-2
786-0 renal
  GI50: 0.0391 µM
  TGI: 1.69 µM
A498 renal
  GI50: < 0.0219 µM
  TGI: 1.97 µM
A549 NSCLC
  GI50: < 0.01 µM
  TGI: 2.48 µM
ACHN renal
  GI50: 0.0379 µM
  TGI: 2.21 µM
BT-549 breast
  GI50: 0.0489 µM
  TGI: 1.45 µM
CAKI-1 renal
  GI50: 0.242 µM
  TGI: 2.2 µM
CCRF-CEM leukemia
  GI50: < 0.01 µM
  TGI: 0.0111 µM
COLO 205 colon
  GI50: < 0.01 µM
  TGI: 1.25 µM
DU-145 prostate
  GI50: 0.0358 µM
  TGI: 2.32 µM
EKVX NSCLC
  GI50: 0.283 µM
  TGI: 2.28 µM
HCC-2998 colon
  GI50: 1.38 µM
  TGI: 2.71 µM
HCT-116 colon
  GI50: < 0.01 µM
  TGI: 1.77 µM
HCT-15 colon
  GI50: < 0.01 µM
  TGI: 1.35 µM
HL-60(TB) leukemia
  GI50: 0.0136 µM
  TGI: 0.0364 µM
HOP-62 NSCLC
  GI50: < 0.0196 µM
  TGI: 1.76 µM
HOP-92 NSCLC
  GI50: 0.758 µM
  TGI: 2.12 µM
HT29 colon
  GI50: 0.0562 µM
  TGI: 1.53 µM
IGROV1 ovarian
  GI50: 1.22 µM
  TGI: 2.48 µM
K-562 leukemia
  GI50: 0.0824 µM
  TGI: 1.4 µM
KM12 colon
  GI50: 1.09 µM
  TGI: 2.32 µM
LOX IMVI melanoma
  GI50: 0.0134 µM
  TGI: 1.36 µM
M14 melanoma
  GI50: 0.2 µM
  TGI: 2.15 µM
MALME-3M melanoma
  GI50: 1.25 µM
  TGI: 2.51 µM
MCF7 breast
  GI50: < 0.01 µM
  TGI: 2.16 µM
MDA-MB-231 breast
  GI50: 1.1 µM
  TGI: 2.32 µM
MDA-MB-435 melanoma
  GI50: 1.07 µM
  TGI: 2.58 µM
MDA-MB-468 breast
  GI50: 0.0362 µM
  TGI: 0.305 µM
MOLT-4 leukemia
  GI50: < 0.01 µM
NCI-H226 lung
  GI50: 0.315 µM
  TGI: 2.43 µM
NCI-H23 lung
  GI50: 0.0562 µM
  TGI: 2.68 µM
NCI-H322M lung
  GI50: 1.48 µM
  TGI: 3.08 µM
NCI-H460 NSCLC
  GI50: < 0.01 µM
  TGI: 1.07 µM
NCI-H522 lung
  GI50: 0.0889 µM
  TGI: 1.72 µM
NCI/ADR-RES ovarian
  GI50: 0.027 µM
  TGI: 0.0862 µM
OVCAR-3 ovarian
  GI50: 0.11 µM
  TGI: 2 µM
OVCAR-4 ovarian
  GI50: 1.49 µM
  TGI: 2.91 µM
OVCAR-5 ovarian
  GI50: 0.11 µM
  TGI: 1.97 µM
OVCAR-8 ovarian
  GI50: 0.0198 µM
  TGI: 1.14 µM
PC-3 prostate
  GI50: 1.14 µM
  TGI: 2.4 µM
RPMI-8226 leukemia
  GI50: 0.0178 µM
  TGI: 0.0575 µM
RXF 393 renal
  GI50: < 0.0198 µM
  TGI: 1.75 µM
SF-268 CNS
  GI50: 1.29 µM
  TGI: 2.77 µM
SF-295 CNS
  GI50: 0.0366 µM
  TGI: 1.82 µM
SF-539 CNS
  GI50: < 0.0194 µM
  TGI: 1.45 µM
SK-MEL-2 melanoma
  GI50: 0.196 µM
  TGI: 1.95 µM
SK-MEL-28 melanoma
  GI50: 1.21 µM
  TGI: 2.46 µM
SK-MEL-5 melanoma
  GI50: 0.0615 µM
  TGI: 2.02 µM
SK-OV-3 ovarian
  GI50: 1.26 µM
  TGI: 2.54 µM
SN12C renal
  GI50: 0.997 µM
  TGI: 2.16 µM
SNB-19 CNS
  GI50: 1.21 µM
  TGI: 2.58 µM
SNB-75 CNS
  GI50: 1.37 µM
  TGI: 2.69 µM
SR leukemia
  GI50: < 0.01 µM
SW-620 colon
  GI50: < 0.01 µM
T-47D breast
  GI50: 1.1 µM
  TGI: 2.32 µM
TK-10 renal
  GI50: 0.312 µM
  TGI: 2.37 µM
U251 glioblastoma
  GI50: < 0.0115 µM
  TGI: 1.48 µM
UACC-257 melanoma
  GI50: 0.293 µM
  TGI: 0.894 µM
UACC-62 melanoma
  GI50: 0.605 µM
  TGI: 2.18 µM
UO-31 renal
  GI50: 0.075 µM
  TGI: 1.89 µM

Source: PubChem BioAssay (NCI)
